Read-outs that look alike come from different tables or passages of the source.
Legend:
[1] = system: Min6 cells; assay: Restoration of impaired insulin secretion in Min6 cells after palmitic acid load (Experimental Example 2); format: cell-based, mouse; conditions: Min6, 0.4 mM palmitic acid load 48 h, 20 mM glucose; for insulin secretion, % of normal group: normal group = 100%
Description: (1-1) Min6 cells suspended in DMEM medium (manufactured by Gibco) were seeded in a 24 well plate at 1.5×10^5 cells per well, and the cells were incubated overnight in 5% CO2 at 37° C. (1-2) To each well, palmitic acid was added to a concentration of 0.4 mM, and BSA not containing the fatty acid was added to a concentration of 0.5% (v/v), and the incubation was continued in 5% CO2 at 37° C. for 48 hours. (1-3) The cells were washed twice with PBS(−), and the incubation was continued in 5% CO2 at 37° C. for 48 hours in DMEM medium (manufactured by Sigma) after adding palmitic acid (palmitic acid group), oleic acid (oleic acid group), EPA (EPA group), or DHA (DHA group) at 50 μM, or in the absence of the fatty acid (control group). In the meanwhile, the Min6 cells cultured in the above (1-1) were incubated in the DMEM medium (manufactured by Sigma) for 48 hours as in the case of the above (1-2) but without adding the 0.4 mM palmitic acid (normal group), and these cells were washed twice with the PBS(−) and incubated in the DMEM medium (manufactured by Sigma) in the absence of the fatty acid in 5% CO2 at 37° C. for another 48 hours as in the case of the control group of the above (1-3) to prepare the sample (normal group). The stimulation with glucose was conducted by repeating the procedure of Experimental Example 1(2), and the sample that had been stimulated with 2.8 mM glucose and the sample that had been stimulated with 20 mM glucose were collected and the amount of insulin per mg of the protein were measured.

[2] = system: Langerhans' islet; assay: Combined use of EPA and tolbutamide on palmitic acid-suppressed insulin secretion of isolated Langerhans' islet (Experimental Example 4); format: cell-based, mice (C57BL/6J); conditions: mouse islets; for insulin secretion, % of control group / activity at 400 µM / activity at 5000 µM: control = 100%; for activity at 400 µM / activity at 5000 µM: Mus musculus, read-out: insulin secretion, % of control group
Description: Langerhans' islet was isolated from the pancreas of male mice (C57BL/6J, 8 week old, purchased from Clea Japan, Inc.) and cultured according to the procedure of Experimental Example 3, and effect of 50 μM EPA alone (the group of palmitic acid plus EPA), 5 mM tolbutamide alone (the group of palmitic acid plus tolbutamide), and combined use of 50M EPA and 5 mM tolbutamide (the group of palmitic acid plus the combination) on the suppression of the insulin secretion stimulated with 20 mM glucose and the insulin secretion stimulated with 30 mM KCl induced by 0.4 mM palmitic acid were measured according to the procedure of Experimental Example 1. Amount of insulin per 1 ng DNA of the Langerhans' islet was evaluated according to the procedure of Experimental Example 3.

[3] = system: Min6 cells from mouse pancreatic β-cell; assay: Inhibition (prophylaxis) of lipotoxicity-impaired glucose-stimulated insulin secretion in Min6 cells (Experimental Example 1); format: cell-based; conditions: for insulin secretion (amount of insulin per mg of the protein): stimulated with 20 mM glucose
Description: Min6 cells from mouse pancreatic β-cell (provided by Dr. Miyazaki of Osaka University) suspended in DMEM medium (manufactured by GIBCO, purchased from Iwai Chemicals Company) were seeded in a 24 well plate at 1.5×10^5 cells per well, and the cells were incubated in 5% CO2 at 37° C. for 24 hours. The medium was replaced with DMEM medium (manufactured by Sigma) containing 0.5% (v/v) fatty acid free bovine serum albumin (hereinafter abbreviated as BSA) and 5.5 mM glucose, and incubated in 5% CO2 at 37° C. for 48 hours with or without (control group) one of the following fatty acids, 0.4 mM palmitic acid (palmitic acid group), 50 μM EPA (EPA group), or 0.4 mM palmitic acid and 50 μM EPA (the group of palmitic acid plus EPA). The supernatant was removed from the cell culture of (1), and the cells were washed twice with phosphate buffered saline (hereinafter abbreviated as PBS(−)), and after adding 500 μL of Krebs-Ringer-Bicarbonate-Hepes buffer (hereinafter abbreviated as KRBH buffer) containing 0.5% (v/v) fatty acid free BSA and 2.8 mM glucose, the incubated was continued in 5% CO2 at 37° C. for 1 hour. The supernatant was removed from the cell culture, and after adding 500 μL of KRBH buffer containing 0.5% (v/v) BSA and 2.8 mM glucose, the incubation was continued in 5% CO2 at 37° C. for 1 hour, and the supernatant was collected as the sample which had been stimulated with 2.8 mM glucose. Next, the cells were washed twice with PBS(−), and incubated in KRBH buffer containing 0.5% (v/v) BSA and 20 mM glucose in 5% CO2 at 37° C. for 1 hour. The supernatant was collected as the sample which had been stimulated with 20 mM glucose. The samples collected were evaluated for their insulin concentration by Levis insulin assay kit (manufactured by Shibayagi and purchased from Nakayama Co., Ltd.) and for their protein concentration by the method of […] (BCA kit), and determine the amount of insulin per mg of the protein.

[4] = system: Langerhans' islet (pancreatic β-cell); assay: Glucose-stimulated insulin secretion of Langerhans' islet isolated from fed mice (Experimental Example 3); format: in vivo, mice (C57BL/6J); conditions: 20 mM glucose; for insulin secretion, % of control group: control = 100%
Description: Male mice (C57BL/6J, 8 week old, purchased from Clea Japan, Inc.) were fed on fish meal free F1 (manufactured by Funabashi Farms Co., Ltd.) for 1 week, and the mice were divided into 4 groups each including 9 to 10 mice. The 4 groups of mice were freely fed for 28 days on (1) fish meal free F1 (control group), (2) fish meal free F1 containing 20% by weight of tripalmitic acid added (palmitic acid group), (3) F1 feed not containing any fish meal having 20% by weight of tripalmitic acid and 5% by weight of EPA-E added (the group of palmitic acid plus EPA), and (4) F1 feed not containing any fish meal having 5% by weight of EPA-E added (EPA group). Before the start of the experiment, on 14th day, and on the final day, blood was taken from orbital venous plexus after fasting for 16 hours. The serum was separated, and blood free fatty acid was enzymatically measured by using NEFA Test Wako (Wako Pure Chemical Industries, Ltd.). Langerhans' islet was isolated by way of density gradient method from the pancreas that had been treated with collagenase, and cultivated in 10% (v/v) fetal bovine serum (purchased from Iwai Chemicals Company) and RPM 11640 medium) supplemented with 1% by weight of penicillin streptomycin (manufactured by Sigma) in 5% CO2 at 37° C. for 2 hours. The glucose-stimulated insulin secretion was then evaluated according to the procedure described in Experimental Example 1-(2). The Langerhans' islet was washed with PBS(−) and vigorously shaked in […] of TNE buffer (0.1M Tris-HCl, pH 7.4, 2M NaCl, 10 mM EDTA) to prepare the cell lysate. 20 μL of this cell lysate was added to 100 μL of chromogenic solution (1.2 μL of Hoechst 33258 (manufactured by Wako Pure Chemical Industries, Ltd.) added to 1 mL of TNE buffer), and the reaction was allowed to proceed at room temperature for at least 8 hours, and the measurement was conducted by using an excitation wavelength of 350 nm and a measurement wavelength of 450 nm. Similar evaluation was conducted by using bovine thymus DNA (manufactured by Sigma) to prepare a calibration curve to thereby enable determination of the DNA amount. Amount of insulin per μg of the DNA of the Langerhans' islet was measured.

[5] = Blood (serum) free fatty acid in palmitic acid fed mice (Experimental Example 3); format: in vivo, mice (C57BL/6J); conditions: feed with 20% by weight tripalmitic acid, 28 days, vs control group
Description: Male mice (C57BL/6J, 8 week old, purchased from Clea Japan, Inc.) were fed on fish meal free F1 (manufactured by Funabashi Farms Co., Ltd.) for 1 week, and the mice were divided into 4 groups each including 9 to 10 mice. The 4 groups of mice were freely fed for 28 days on (1) fish meal free F1 (control group), (2) fish meal free F1 containing 20% by weight of tripalmitic acid added (palmitic acid group), (3) F1 feed not containing any fish meal having 20% by weight of tripalmitic acid and 5% by weight of EPA-E added (the group of palmitic acid plus EPA), and (4) F1 feed not containing any fish meal having 5% by weight of EPA-E added (EPA group). Before the start of the experiment, on 14th day, and on the final day, blood was taken from orbital venous plexus after fasting for 16 hours. The serum was separated, and blood free fatty acid was enzymatically measured by using NEFA Test Wako (Wako Pure Chemical Industries, Ltd.). […] The glucose-stimulated insulin secretion was then evaluated according to the procedure described in Experimental Example 1-(2).

[6] = 0.4 mM palmitic acid plus 50 μM EPA, 5 mM tolbutamide or both, 20 mM glucose
[7] = 0.4 mM palmitic acid plus 50 μM EPA, 5 mM tolbutamide or both, 30 mM KCl
[8] = 0.4 mM palmitic acid plus 50 μM EPA, 5 mM tolbutamide or both, stimulated with 20 mM glucose
[9] = 0.4 mM palmitic acid plus 50 μM EPA, 5 mM tolbutamide or both, stimulated with 30 mM KCl
[10] = islets of mice fed 5% EPA-E alone 28 days
[11] = islets of mice fed 20% tripalmitic acid and 5% EPA-E 28 days
[12] = then 48 h without fatty acid (control group)
[13] = islets of mice fed 20% tripalmitic acid 28 days

CC/C=C\C/C=C\C/C=C\C/C=C\C/C=C\C/C=C\CCC(=O)O [DHA, docosahexaenoic acid]
insulin secretion (amount of insulin per mg of the protein) ([1]; then 50 μM fatty acid 48 h): 0.004073 mg | insulin secretion, % of normal group ([1]; then 50 μM fatty acid 48 h): 81.4%

CC/C=C\C/C=C\C/C=C\C/C=C\C/C=C\CCCC(=O)O [EPA, eicosapentaenoic acid]
insulin secretion, % of control group [2, 6]: 80.0% | insulin secretion, % of control group [2, 7]: 72.4% | insulin secretion (amount of insulin per 1 ng DNA of the Langerhans' islet) [2, 8]: 823 pg | insulin secretion (amount of insulin per 1 ng DNA of the Langerhans' islet) [2, 9]: 422 pg | insulin secretion (amount of insulin per mg of the protein) ([3]; Min6, 50 μM EPA alone 48 h): 0.003664 mg | insulin secretion, % of control group ([3]; Min6, 0.4 mM palmitic acid and 50 μM EPA 48 h, 20 mM glucose, control = 100%): 54.6% | insulin secretion (amount of insulin per mg of the protein) ([3]; Min6, 0.4 mM palmitic acid and 50 μM EPA 48 h): 0.002096 mg | activity at 50 µM ([3]; Mus musculus, Min6, 50 μM EPA alone 48 h, 20 mM glucose, control = 100%, read-out: insulin secretion, % of control group): 95.5% | insulin secretion (amount of insulin per mg of the protein) ([1]; then 50 μM fatty acid 48 h): 0.004278 mg | insulin secretion, % of normal group ([1]; then 50 μM fatty acid 48 h): 85.4% | insulin secretion (amount of insulin per μg of the DNA of the Langerhans' islet) [4, 10]: 0.0089 µg | insulin secretion, % of control group [4, 10]: 121% | insulin secretion (amount of insulin per μg of the DNA of the Langerhans' islet) [4, 11]: 0.0082 µg | insulin secretion, % of control group [4, 11]: 111%

CCCCCCCC/C=C\CCCCCCCC(=O)O [oleic acid]
insulin secretion (amount of insulin per mg of the protein) ([1]; then 50 μM fatty acid 48 h): 0.000659 mg | insulin secretion, % of normal group ([1]; then 50 μM fatty acid 48 h): 13.2%

CCCCCCCCCCCCCCCC(=O)O [palmitic acid]
serum free fatty acid concentration [5]: increased more significantly with time | activity at 400 µM ([2]; 0.4 mM palmitic acid alone, 20 mM glucose): 55.6% | activity at 400 µM ([2]; 0.4 mM palmitic acid alone, 30 mM KCl): 39.3% | insulin secretion (amount of insulin per 1 ng DNA of the Langerhans' islet) ([2]; 0.4 mM palmitic acid alone, stimulated with 20 mM glucose): 572 pg | insulin secretion (amount of insulin per 1 ng DNA of the Langerhans' islet) ([2]; 0.4 mM palmitic acid alone, stimulated with 30 mM KCl): 229 pg | insulin secretion (amount of insulin per mg of the protein) ([3]; Min6, 0.4 mM palmitic acid alone 48 h): 0.00091 mg | activity at 400 µM ([3]; Mus musculus, Min6, 0.4 mM palmitic acid alone 48 h, 20 mM glucose, control = 100%, read-out: insulin secretion, % of control group): 23.7% | insulin secretion (amount of insulin per mg of the protein) ([1]; then 50 μM fatty acid 48 h): 0.000742 mg | insulin secretion, % of normal group ([1]; then 50 μM fatty acid 48 h): 14.8% | insulin secretion (amount of insulin per mg of the protein) [1, 12]: 0.002481 mg | insulin secretion, % of normal group [1, 12]: 49.6% | insulin secretion (amount of insulin per μg of the DNA of the Langerhans' islet) [4, 13]: 0.0046 µg | insulin secretion, % of control group [4, 13]: 63%

CCCCNC(=O)NS(=O)(=O)c1ccc(C)cc1 [tolbutamide]
activity at 5000 µM [2, 6]: 65.4% | activity at 5000 µM [2, 7]: 54.2% | insulin secretion (amount of insulin per 1 ng DNA of the Langerhans' islet) [2, 8]: 673 pg | insulin secretion (amount of insulin per 1 ng DNA of the Langerhans' islet) [2, 9]: 316 pg
